One series concerns M. tuberculosis (H37Rv). In words: microbe, parasite or virus in culture. In kind it is cell-based, Mycobacterium tuberculosis.
The test system of the next series is P. berghei N strain. In words: Oral antimalarial activity against P. berghei N strain. In kind it is in vivo, Plasmodium berghei. The conditions noted are these: orally in DMSO, preliminary results.
Series [1] can be described thus: Cytotoxicity of microbial metabolites versus parent compounds (cells not stated). In kind it is cell-based.
For series [2], the system named is P. falciparum D6 clone (Sierra Leone, chloroquine-sensitive). The experiment in a line: In vitro antimalarial activity, parasite LDH assay, D6 clone. The conditions noted are these: for IC50: Plasmodium falciparum. In kind it is cell-based, Plasmodium falciparum.
A further series relates to P. berghei. The experiment in a line: In vivo antimalarial activity in P. berghei-infected mice. More on the design: species or system Plasmodium berghei. The conditions noted are these: for reduction of parasitemia: single i.p. 100 μmoles/kg, comparison 2 days after treatment. The method, then: In Vivo Evaluation of Antimalarial Activity. (National University of Singapore by Dr. Kenny Ang, confirmation of activity at the WHO). Four-week-old, male Swiss albino mice are injected intraperitoneally with 10^7 P. berghei-infected mouse erythrocytes. On day 2 after infection, mice are treated with a single intraperitoneal injection of either the test compound or a reference drug (chloroquine or artemisinin) within a concentration range of 50 to 1,000 μmol/kg of body weight. All test compounds and reference drugs were injected as a suspension in 5% Tween 60 saline. For oral administration, the test compounds are given as a suspension in corn oil, and mice are given two consecutive doses of test compound at 100 μmol/kg on days 2 and 3 after infection. […] Control mice receive only 5% Tween 60 saline or corn oil. Survival of mice was recorded daily. Percent parasitemia is determined microscopically (magnification, ×1,000) from mouse-tail blood smears that were fixed with methanol and stained with Giemsa stain. Blood samples from individual P. berghei-infected mice were collected at various times after a single intraperitoneal treatment of 100 μmol/kg of manzamine A per kg on day 3 after infection. For transmission electron microscopy, approximately 0.5-ml blood samples are fixed with 3% glutaraldehyde in 0.1 M cacodylate buffer (pH 7.4), postfixed with 1% osmium tetroxide and 1% uranyl acetate, dehydrated in a graded ethanol series, and embedded in Spurr's resin. The resulting blocks are cut by using a Reichert-Jung Ultracut with a glass knife. Ultra thin sections were mounted on 150-mesh copper grids, stained with 1% uranyl acetate and 1% lead citrate, and examined with a JEM-100CX electron microscope. Manzamine in plasma was detected by liquid chromatography=selected reaction monitoring-mass spectrometry (LC-SRM-MS). P. berghei-infected mice will be treated with the alkaloid (100 μmol/kg intraperitoneally) on day 3 post infection. Blood samples are collected from individual mice at specific times up to 48 h posttreatment. Plasma was isolated by centrifugation and extracted with 95% acetonitrile containing 5 mM ammonium acetate. The plasma extract was filtered, and 5 μl samples are injected into a Shimadzu LC-10 AD microbore high-pressure liquid chromatograph interfaced with a Perkin-Elmer API 300 turbo-ion-spray tandem mass spectrometer. Samples are separated on a Prodigy C-18 column (30 by 1 mm, 5-μm inner diameter) by elution at 50 μl/min with 86% acetonitrile containing 5 mM ammonium acetate. Manzamine can be detected by monitoring the transition of the protonated manzamine precursor ion from the (M+H)^+ to the (M+H —H2O)^+. Peak areas for the product ion chromatograms are integrated, and concentrations are determined from a linear calibration curve for manzamine in spiked plasma. The limit of detection for the manzamines in plasma by LC-SRM-MS is 2.5 pg. Results are subjected to a nonparametric statistical assessment with a confidence interval of 99% (p<0.01) by using Analyse-it software linked to Microsoft Excel. The program uses the Mann-Whitney U test to determine significant differences between two groups of data.

Series [3] deals with P. falciparum W2 clone (Indochina, chloroquine-resistant). The experiment in a line: In vitro antimalarial activity, parasite LDH assay, W2 clone. In kind it is cell-based, Plasmodium falciparum. The conditions noted are these: P. falciparum W2 clone; for IC50: Plasmodium falciparum, read-out: W2 Clone IC50.
The subject of series [4] is Vero cells. The conditions noted are these: African green monkey, 48 h.
Series [5] concerns Vero cells. In words: In vitro cytotoxicity to mammalian cells (neutral red).
A further series relates to human PBM cells. In words: Cytotoxicity in human PBM cells. The note with it: read-out: Cytotoxicity in human PBM cells IC50.
A further series has as its system HIV-1 in human PBM cells. The experiment in a line: Anti-HIV activity in human PBM cells. In kind it is cell-based. The conditions noted are these: human PBM cells.
Series [6] is described as follows: Cytotoxicity against human lung and colon carcinoma cells. In kind it is cell-based.
Series [7] relates to P-388 mouse lymphoma cells. The note with it: cited from earlier work.
Series [8] deals with P-388 mouse lymphoma cells. The experiment in a line: Cytotoxicity against P-388 mouse lymphoma cells. In kind it is cell-based.
The subject of series [9] is human lung and colon carcinoma cells. The conditions noted are these: cited from earlier work.
Where [10] appears, read: M. tuberculosis H37Rv, test concentration not given.
The mark [11] stands for this setting: Mycobacterium tuberculosis, M. tuberculosis H37Rv, read-out: MIC.
The mark [12] stands for this setting: P. berghei-infected mice, single i.p. dose 100 μmoles/kg.

≈ marks a conversion by molar mass, not a printed value. Where two headings read alike, the source gives them in different places. A value given as a limit tells only on which side of the number the result lay.

In the case of “8,12-di-O-acetyl ent-8-hydroxymanzamine A [ent-8-Hydroxymanzamine A diAc]”, in the series on M. tuberculosis (H37Rv) (M. tuberculosis H37Rv), the MIC is under 6.25 µg/mL. The % Inhibition (as a rule, the drop in the measured response relative to a control, in per cent) in the series with M. tuberculosis (H37Rv) (setting [10]) is on record as 95%.

For 8-hydroxymanzamine, the ED50 (in general, the dose that gives a 50% effect, or the effect in half of the subjects) with P. berghei N strain is on record as under 10 mg/kg.

Turning to “15,16,32,33-tetrahydro-ent-8-hydroxymanzamine A”, in the series with M. tuberculosis (H37Rv) (M. tuberculosis H37Rv), the MIC is under 6.25 µg/mL. In the series with M. tuberculosis (H37Rv) (setting [10]), the “% Inhibition” value is listed as 100%.

With `O[C@]12C=C(c3nccc4c3[nH]c3ccccc34)C3CCN(CCCC/C=C\CC1)C[C@@]31C[C@]34CC[C@H](CCCN3[C@H]12)O4` (stereo partly shown) [6-Deoxymanzamine X, 6-deoxymanzamine X], the MIC in the series with M. tuberculosis (H37Rv) (M. tuberculosis H37Rv) is under 12.5 µg/mL. Moreover, in the series on M. tuberculosis (H37Rv) (setting [10]), the “% Inhibition” value came out at 98%.

`O=C1CCCN2[C@H]3[C@]45CN6CCCC/C=C\CC[C@]3(C=C(c3nccc7c3[nH]c3c(O)cccc37)[C@H]4CC6)O[C@@]2(CC1)C5` [8-HOMA Metabolite 1]: the “% Inhibition” value with M. tuberculosis (H37Rv) (setting [10]) is 98%. Also, in the series on M. tuberculosis (H37Rv) (setting [11]), the MIC is under 12.5 µg/mL. Moreover, the “cytotoxicity relative to the parent compounds” value in series [1] is “less cytotoxic than the parent compounds”.

With `C[C@@H]1CC[C@H]2[C@@H](C)C(=O)O[C@@H]3O[C@@]4(C)CC[C@@H]1[C@]32OO4` [Artemisinin, artemisinin, reference compound], the IC50 (in general, the concentration that gives 50% inhibition) came to 0.01 µg/mL (≈ 0.0354 µM) in [2] (P. falciparum D6 clone, read-out: D6 Clone IC50) and 0.0063 µg/mL (≈ 0.0223 µM) in series [3]. Also, the average survival days with P. berghei (setting [12]) was 2 to 3 days. Moreover, in the series on Vero cells [4], the “Cytotoxicity TC50” value is >5,000 ng/mL.

Consider `CCN(CC)CCCC(C)Nc1ccnc2cc(Cl)ccc12` (stereo not shown) [Chloroquine, chloroquine, reference compound], for which the IC50 in [2] (D6, read-out: D6 Clone IC50) is 0.0155 µg/mL (≈ 0.0485 µM); in series [3] it was 0.17 µg/mL (≈ 0.531 µM). Further, the “reduction of parasitemia” value in the series on P. berghei (P. berghei-infected mice) was “comparable reduction of parasitemia”. For the same compound, in the series with P. berghei (in vivo, ip), the average survival days came to 6 days. The “Cytotoxicity TC50” value in the series on Vero cells [5] is on record as >5,000 ng/mL.

Consider `O=CC1=C[C@@]2(O)CC/C=C\CCCCN3CC[C@@H]1[C@]1(CC4/C=C\CCCCN4[C@H]12)C3` (stereo partly shown) [Ircinal A], for which the MIC with M. tuberculosis (H37Rv) (M. tuberculosis H37Rv) is under 12.5 µg/mL. The “% Inhibition” value with M. tuberculosis (H37Rv) (setting [10]) is recorded as 98%. The “cytotoxicity relative to the parent compounds” value in [1] was “less cytotoxic than the parent compounds”. Besides, the “activity in vivo against malaria” value with P. berghei (mice) was “failed to show any activity in vivo against malaria”. The IC50 with human PBM cells is 34.2 µM. The EC50 (usually the midpoint of the concentration-response curve) with HIV-1 in human PBM cells was found to be 45.2 µM.

For the compound `O=C1CCCN2[C@@H](CC1)C[C@]13CN4CCCC/C=C\CC[C@](O)(C=C(c5nccc6c5[nH]c5ccccc56)[C@@H]1CC4)[C@H]23` [Manzamine E], in the series with M. tuberculosis (H37Rv) (M. tuberculosis H37Rv), the MIC came out at 3.13 µg/mL (≈ 5.54 µM). The “% Inhibition” value in the series with M. tuberculosis (H37Rv) (setting [10]) came to 99%. Further, the IC50 in the series on human PBM cells came out at 35.5 µM. For the same compound, the EC50 in the series with HIV-1 in human PBM cells is 18.7 µM.

Turning to `O[C@]12C=C(c3nccc4c3[nH]c3ccccc34)[C@@H]3CCN(CCCC/C=C\CC1)C[C@@]31CC/C=C\CCCCN[C@@H]12` [Manzamine J], the “% Inhibition” value in the series on M. tuberculosis (H37Rv) (setting [10]) was 99%. The MIC in the series with M. tuberculosis (H37Rv) (setting [11]) is under 12.5 µg/mL.

For `CO[C@H]1/C=C/O[C@@]2(C)Oc3c(C)c(O)c4c(O)c(c(/C=N/N5CCN(C)CC5)c(O)c4c3C2=O)NC(=O)/C(C)=C\C=C\[C@H](C)[C@H](O)[C@@H](C)[C@@H](O)[C@@H](C)[C@H](OC(C)=O)[C@@H]1C` [Rifampin, reference compound], in the series on M. tuberculosis (H37Rv), the “% Inhibition” value was 100%. Moreover, the MIC against M. tuberculosis (H37Rv) (Mycobacterium tuberculosis, H37RV) came out at 0.25 µg/mL (≈ 0.304 µM).

In the series with M. tuberculosis (H37Rv) (M. tuberculosis H37Rv), `O=C1CCCN2[C@@H](CC1)C[C@]13CN4CCCC/C=C\CC[C@](O)(C=C(c5nccc6c5[nH]c5c(O)cccc56)C1CC4)[C@H]23` (stereo partly drawn) [ent-Manzamine F, ent-manzamine F] came in with an MIC of over 12.5 µg/mL. Also, the IC50 in the series on human PBM cells was 40.8 µM. In the series on HIV-1 in human PBM cells, this compound returned an EC50 of 94.8 µM.

On to `O[C@@H]1CCCN2CC[C@@H]1O[C@@]13CC[C@@H](OC[C@]45CN6CCCC/C=C\CC[C@](O)(C=C(c7nccc8c7[nH]c7ccccc78)[C@@H]4CC6)[C@H]25)[C@@H](O)CCN1[C@@H]1[C@]2(CN4CCCC/C=C\CC[C@]1(O)C=C(c1nccc5c1[nH]c1ccccc15)[C@@H]2CC4)C3` [neo-Kauluamine, neo-kauluamine], for which the “% Inhibition” value in the series on M. tuberculosis (H37Rv) (setting [10]) is 44%. In addition, the MIC with M. tuberculosis (H37Rv) (setting [11]) is over 12.5 µg/mL. In [6], this compound yielded an IC50 of 1 µg/mL (≈ 0.859 µM).

Regarding (+)-8-Hydroxymanzamine A, the “D6 Clone IC50” value in series [2] (P. falciparum D6 clone) stood at 0.006 µg/mL. In addition, the “cytotoxicity, reported” value in series [7] is “inactive”. Further, the MIC in the series with M. tuberculosis (H37Rv) (M. tuberculosis H37Rv) is under 6.25 µg/mL. The “% Inhibition” value with M. tuberculosis (H37Rv) (setting [10]) is 100%. In addition, the “W2 Clone IC50” value in series [3] turned out to be 0.008 µg/mL. For the same compound, in the series on Vero cells [5], the “Cytotoxicity TC50” value was 320 ng/mL.

Consider (−)-12, 34-Oxamanzamine F, for which the IC50 with human PBM cells worked out at 75.2 µM. In the series with HIV-1 in human PBM cells, this compound displayed an EC50 of 20.4 µM.

Compound Manzamine L displayed an MIC in the series with M. tuberculosis (H37Rv) (M. tuberculosis H37Rv) of under 12.5 µg/mL. Besides, in the series on M. tuberculosis (H37Rv) (setting [10]), the “% Inhibition” value is given as 99%.

In the series on M. tuberculosis (H37Rv) (M. tuberculosis H37Rv), “ent-8-hydroxy-manzamine A [ent-8-Hydroxymanzamine A]” came in with an MIC of 3.13 µg/mL. Moreover, in the series on M. tuberculosis (H37Rv) (setting [10]), the “% Inhibition” value was found to be 99%. For the same compound, the “reduction of parasitemia” value with P. berghei (P. berghei-infected mice) is on record as “efficiently reduced parasitemia”. Besides, the average survival days with P. berghei (setting [12]) fell in the range of 9 to 11 days. Also, in the series with P. berghei (mice), the “in vivo activity against P. berghei relative to chloroquine or artemisinin” value is recorded as “in vivo activity against P. berghei greater than chloroquine or artemisinin”. The IC50 in the series with human PBM cells was 4.9 µM. Further, it took 44.2 µM to reach a half-maximal effect in the series with HIV-1 in human PBM cells (EC50). Also, in series [8], the “cytotoxicity IC50” value amounted to 0.25 µg/mL.

Consider kauluamine, for which the “cytotoxicity” value in [9] was “inactive”.

These data come from patent US6900195B2, “Manzamines for treatment of drug resistant infection” (The University of Mississippi, priority 2000, dated 2005).
